Measured values reported in patent publication US10604484B2, “Indolone compounds and their use as AMPA receptor modulators” (Janssen Pharmaceutica NV, priority 2015, dated 2020).

Target: T1, GluA1o-γ8 (Homo sapiens, UniProt P42261+Q8WXS5)
T1 construct: expressed in transfected cells
Experiment: Calcium flux assay (FLIPR), inhibition of glutamate response of GluA1o-γ8 channel in HEK293 cells
Type: cell-based
Conditions: HEK293 cells stably expressing GRIA1o-CACNG8 fusion; 15 μM glutamate; pIC50 = negative log of the IC50 in molar; read-out: GluR1-γ8 pIC50 (converted)
Description: This assay was used to test compounds for their ability to inhibit TARP γ8 dependent AMPA receptor activity. The AMPA receptor is a non-selective cation channel activated by glutamate. Ionotropic glutamate receptors normally desensitize too rapidly to allow detectable calcium influx in a FLIPR assay (Strange et al. (2006). “Functional characterisation of homomeric ionotropic glutamate receptors GluR1-GluR6 in a fluorescence-based high throughput screening assay.” Comb Chem High Throughput Screen 9(2): 147-158). But, this desensitization is incomplete, and a substantial steady-state current remains in the sustained presence of glutamate (Cho et al. (2007). “Two families of TARP isoforms that have distinct effects on the kinetic properties of AMPA receptors and synaptic currents.” Neuron 55(6): 890-904).
An in vitro assay was used to determine the potency of test compounds as inhibitors of the glutamate response of the channel formed by GluA1o-γ8. To ensure a 1:1 stoichiometry of GluA1o and γ8 subunits in the expressed channel, a fusion of the cDNAs for GRIA1o and CACNG8 was used. Following Shi et al (2009) “The stoichiometry of AMPA receptors and TARPs varies by neuronal cell type.” Neuron 62(5): 633-640), the C-terminus of the cDNA for GRIA1o was fused to the N-terminus of the cDNA for γ8. The linker sequence was QQQQQQQQQQEFAT. Channels expressed with this construct appear to have similar properties to channels formed by co-expression of GRIA1o with an excess of CACNG8 (Shi et al. 2009). A clonal cell line in HEK293 cells stably expressing this construct, with a geneticin selection marker, was generated for use in this assay. Cell expressing the GRIA1o-CACNG8 fusion construct were grown in a monolayer in 96- or 384-well microtiter plates. They were washed with assay buffer (135 mM NaCl, 4 mM KCl, 3 mM CaCl2, 1 mM MgCl2, 5 mM glucose, 10 mM HEPES, pH 7.4, 300 mOs) using a Biotek EL405 plate washer. The cells were then loaded with a calcium-sensitive dye (Calcium-5 or Calcium-6, Molecular Devices) and the test compounds at a range of concentrations. Calcium flux following the addition of 15 μM glutamate was monitored using a Molecular Devices FLIPR Tetra.
The fluorescence in each well was normalized to the fluorescence of negative and positive control wells. The negative control wells had no added compounds, and the positive control wells had been incubated with 10 μM CP465022 (a non-subtype-selective AMPA receptor antagonist) (Lazzaro et al. (2002). “Functional characterization of CP-465,022, a selective, noncompetitive AMPA receptor antagonist.” Neuropharmacology 42(2): 143-153). The responses to glutamate as functions of the test compound concentrations were fitted to a four-parameter logistic function. The fitted parameter corresponding to the midpoint was taken to be the potency of inhibition of the compound. The data in Table 4 below illustrates the observed potentcy for the compounds described herein. pIC50 refers to the negative log of the IC50 in molar.

T1 sequence (P42261+Q8WXS5 fused): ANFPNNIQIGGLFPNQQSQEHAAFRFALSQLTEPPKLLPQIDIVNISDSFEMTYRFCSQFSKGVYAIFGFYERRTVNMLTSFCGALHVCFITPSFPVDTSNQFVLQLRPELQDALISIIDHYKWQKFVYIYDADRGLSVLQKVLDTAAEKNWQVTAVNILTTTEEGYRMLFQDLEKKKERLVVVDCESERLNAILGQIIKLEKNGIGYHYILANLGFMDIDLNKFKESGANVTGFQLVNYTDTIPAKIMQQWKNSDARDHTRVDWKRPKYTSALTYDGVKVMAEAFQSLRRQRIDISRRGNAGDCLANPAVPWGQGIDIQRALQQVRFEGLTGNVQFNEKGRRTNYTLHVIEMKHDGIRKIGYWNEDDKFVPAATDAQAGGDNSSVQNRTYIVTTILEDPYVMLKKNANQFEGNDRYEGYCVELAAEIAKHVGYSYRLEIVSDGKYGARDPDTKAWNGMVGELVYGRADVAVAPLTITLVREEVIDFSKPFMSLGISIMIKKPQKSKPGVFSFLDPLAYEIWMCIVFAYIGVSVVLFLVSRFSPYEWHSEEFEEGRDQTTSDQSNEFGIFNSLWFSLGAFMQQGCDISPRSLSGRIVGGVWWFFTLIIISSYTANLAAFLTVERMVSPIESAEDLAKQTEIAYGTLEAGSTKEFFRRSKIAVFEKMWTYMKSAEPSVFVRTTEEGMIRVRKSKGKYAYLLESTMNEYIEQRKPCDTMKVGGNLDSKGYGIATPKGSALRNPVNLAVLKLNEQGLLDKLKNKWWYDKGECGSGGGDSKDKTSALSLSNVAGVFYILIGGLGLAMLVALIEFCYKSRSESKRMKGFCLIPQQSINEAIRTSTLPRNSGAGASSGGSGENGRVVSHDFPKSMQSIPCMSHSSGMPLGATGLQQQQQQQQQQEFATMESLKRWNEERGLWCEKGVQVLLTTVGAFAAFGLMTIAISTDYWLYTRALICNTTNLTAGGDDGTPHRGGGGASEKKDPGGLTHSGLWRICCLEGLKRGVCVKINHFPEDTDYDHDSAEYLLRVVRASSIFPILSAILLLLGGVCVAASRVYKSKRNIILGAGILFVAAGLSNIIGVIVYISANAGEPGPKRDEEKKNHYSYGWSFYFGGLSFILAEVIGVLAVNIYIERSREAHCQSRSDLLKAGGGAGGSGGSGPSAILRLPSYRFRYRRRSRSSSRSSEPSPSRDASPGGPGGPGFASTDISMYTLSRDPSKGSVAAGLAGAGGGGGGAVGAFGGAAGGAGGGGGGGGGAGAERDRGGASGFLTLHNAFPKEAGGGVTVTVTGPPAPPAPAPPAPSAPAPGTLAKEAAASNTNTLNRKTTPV

IC50 | SMILES
10 nM | Cc1cc(-c2c(C)cncc2C)cc2c1NC(=O)C2 [Example 148, 5-(3,5-Dimethyl-4-pyridyl)-7-methyl-indolin-2-one]
15.8 nM | Cc1cc(-c2c(C)ccnc2Cl)cc2c1NC(=O)C2 [Example 149, 5-(2-Chloro-4-methyl-3-pyridyl)-7-methyl-indolin-2-one]
31.6 nM | COc1nccc(C)c1-c1cc(C)c2c(c1)CC(=O)N2 [Example 150, 5-(2-Methoxy-4-methyl-3-pyridyl)-7-methyl-indolin-2-one]
631 nM | Cc1cc(-c2c(C)ccnc2C)cc2c1NC(=O)C2 [Example 151, 5-(2,4-Dimethyl-3-pyridyl)-7-methyl-indolin-2-one]
3.16 nM | Cc1cc(-c2c(Cl)ccnc2Cl)cc2c1NC(=O)C2 [Example 152, 5-(2,4-Dichloro-3-pyridyl)-7-methyl-indolin-2-one]
0.0794 nM | O=C1Cc2cc(-c3c(Cl)cccc3OC(F)(F)F)cc(Cl)c2N1 [Example 153, 7-Chloro-5-[2-chloro-6-(trifluoromethoxy)phenyl]indolin-2-one]
0.316 nM | O=C1Cc2cc(-c3c(Cl)cccc3OC(F)F)cc(Cl)c2N1 [Example 154, 7-Chloro-5-[2-chloro-6-(difluoromethoxy)phenyl]indolin-2-one]
0.158 nM | CC(C)(C#N)c1cccc(Cl)c1-c1cc(Cl)c2c(c1)CC(=O)N2 [Example 155, 2-[3-Chloro-2-(7-chloro-2-oxo-indolin-5-yl)phenyl]-2-methyl-propanenitrile]
0.0794 nM | N#Cc1ccc(Cl)c(-c2cc(Cl)c3c(c2)CC(=O)N3)c1OC(F)(F)F [Example 156, 4-Chloro-3-(7-chloro-2-oxo-indolin-5-yl)-2-(trifluoromethoxy)benzonitrile]
6.31 nM | O=C1Cc2cc(-c3c(Cl)cncc3OC(F)(F)F)cc(Cl)c2N1 [Example 157, 7-Chloro-5-(3-chloro-5-(trifluoromethoxy)pyridin-4-yl)indolin-2-one]
7.94 nM | O=C1Cc2cc(-c3c(Cl)cncc3OC(F)F)cc(Cl)c2N1 [Example 158, 7-Chloro-5-[3-chloro-5-(difluoromethoxy)-4-pyridyl]indolin-2-one]
7.94 nM | O=C1Cc2cc(-c3c(Cl)cncc3Cl)cc(Cl)c2N1 [Example 159, 7-Chloro-5-(3,5-dichloro-4-pyridyl)indolin-2-one]
6.31 nM | Cc1ccnc(Cl)c1-c1cc(Cl)c2c(c1)CC(=O)N2 [Example 160, 7-Chloro-5-(2-chloro-4-methyl-3-pyridyl)indolin-2-one]
158 nM | Cc1ccnc(C)c1-c1cc(Cl)c2c(c1)CC(=O)N2 [Example 161, 7-Chloro-5-(2,4-dimethyl-3-pyridyl)indolin-2-one]
7.94 nM | COc1nccc(C)c1-c1cc(Cl)c2c(c1)CC(=O)N2 [Example 162, 7-Chloro-5-(2-methoxy-4-methyl-3-pyridyl)indolin-2-one]
1.58 nM | O=C1Cc2cc(-c3c(Cl)ccnc3Cl)cc(Cl)c2N1 [Example 163, 7-Chloro-5-(2,4-dichloro-3-pyridyl)indolin-2-one]

IC50 | SMILES
1.58 nM | Cc1cccc(C#N)c1-c1cc(Cl)c2c(c1)CC(=O)N2 [Example 164, 2-(7-Chloro-2-oxo-indolin-5-yl)-3-methyl-benzonitrile]
0.0631 nM | Cc1cccc(Cl)c1-c1cc(Cl)c2c(c1)CC(=O)N2 [Example 165, 7-Chloro-5-(2-chloro-6-methyl-phenyl)indolin-2-one]
0.794 nM | Cc1cccc(F)c1-c1cc(Cl)c2c(c1)CC(=O)N2 [Example 166, 7-Chloro-5-(2-fluoro-6-methyl-phenyl)indolin-2-one]
0.316 nM | Cc1cccc(C(F)(F)F)c1-c1cc(Cl)c2c(c1)CC(=O)N2 [Example 167, 7-Chloro-5-[2-methyl-6-(trifluoromethyl)phenyl]indolin-2-one]
0.0501 nM | CCc1cc(-c2c(Cl)cccc2OC(F)(F)F)cc2c1NC(=O)C2 [Example 168, 5-[2-Chloro-6-(trifluoromethoxy)phenyl]-7-ethyl-indolin-2-one]
3.16 nM | CCc1cc(-c2c(C)cccc2C#N)cc2c1NC(=O)C2 [Example 169, 2-(7-Ethyl-2-oxo-indolin-5-yl)-3-methyl-benzonitrile]
0.251 nM | CCc1cc(-c2c(C)cccc2Cl)cc2c1NC(=O)C2 [Example 170, 5-(2-Chloro-6-methyl-phenyl)-7-ethyl-indolin-2-one]
1.58 nM | CCc1cc(-c2c(C)cccc2F)cc2c1NC(=O)C2 [Example 171, 7-Ethyl-5-(2-fluoro-6-methyl-phenyl)indolin-2-one]
0.2 nM | CCc1cc(-c2c(C)cccc2C(F)(F)F)cc2c1NC(=O)C2 [Example 172, 7-Ethyl-5-[2-methyl-6-(trifluoromethyl)phenyl]indolin-2-one]
15.8 nM | CCc1cc(-c2c(C)cncc2C)cc2c1NC(=O)C2 [Example 173, 5-(3,5-Dimethyl-4-pyridyl)-7-ethyl-indolin-2-one]
5.01 nM | CCc1cc(-c2c(Cl)cncc2Cl)cc2c1NC(=O)C2 [Example 174, 5-(3,5-Dichloro-4-pyridyl)-7-ethyl-indolin-2-one]
0.631 nM | N#Cc1cc(-c2c(Cl)cccc2OC(F)(F)F)cc2c1NC(=O)C2 [Example 175, 5-[2-Chloro-6-(trifluoromethoxy)phenyl]-2-oxo-indoline-7-carbonitrile]
0.501 nM | O=C1Cc2cc(-c3c(Cl)cccc3OC(F)(F)F)cc(C(F)(F)F)c2N1 [Example 176, 5-[2-Chloro-6-(trifluoromethoxy)phenyl]-7-(trifluoromethyl)indolin-2-one]
0.2 nM | O=C1Cc2cc(-c3c(Cl)cccc3OC(F)(F)F)cc(OC(F)(F)F)c2N1 [Example 177, 5-[2-Chloro-6-(trifluoromethoxy)phenyl]-7-(trifluoromethoxy)indolin-2-one]
0.794 nM | COc1cc(-c2c(Cl)cccc2OC(F)(F)F)cc2c1NC(=O)C2 [Example 178, 5-[2-Chloro-6-(trifluoromethoxy)phenyl]-7-methoxy-indolin-2-one]
6310 nM | COC1CCN(c2cccc(-c3ccc4c(c3)CC(=O)N4)c2Cl)CC1 [Example 179, 5-[2-Chloro-3-(4-methoxy-1-piperidyl)phenyl]indolin-2-one]
